Consider 1 compound from ChEMBL document CHEMBL1158676, “Aurilol, a Cytotoxic Bromotriterpene Isolated from the Sea Hare Dolabella auricularia” (J Nat Prod, 1998).

Converted amounts (≈) assume the structure as drawn.

The test in a line: Cytotoxicity against human HeLaS3 cells. It is filed as functional, cell-based. To be noted: HeLa S3.

The IC50 is the midpoint of a concentration-inhibition curve. The low end stands for greater potency in that assay, the high end for weaker potency in that assay. Regarding `CC(C)(O)[C@H](O)CC[C@@](C)(O)[C@@H]1CC[C@](C)([C@@H]2CC[C@@H]([C@@]3(C)CC[C@@H]4OC(C)(C)[C@H](Br)CC[C@@]4(C)O3)O2)O1` [AURILOL], it took 4.3 mg/L (≈ 7.1 µM) to reach half-maximal inhibition (IC50).
